How the values were obtained:
[1] = system: HSC2; assay: relative IC50 (inflection point of fitted dose-response curve, CellTiter-Glo viability, 72 h; top asymptote may be below 50% inhibition); higher = less potent
In short: (§1)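 For this screen, 384-well plates were preprinted with each compound at five concentrations in 10-fold steps and seeded with MPNST cell lines or primary human Schwann cells at 750–1000 cells per well. Incubation lasted 72 h at 37 °C, 5% CO2, and CellTiter-Glo ATP luminescence, scaled between vehicle and positive-control wells and averaged over duplicates where available, served as viability. Logistic fits with four parameters were applied. Relative IC50 (censored at the top concentration) and drug sensitivity score derive from these fits, and percent inhibition is at the top concentration.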

[2] = system: S1507-2; assay: as above
In short: as §1

[3] = system: YST-1; assay: as above
In short: as §1

[4] = system: HS-Sch-2; assay: as above
In short: as §1

[5] = system: HS-PSS; assay: as above
In short: as §1

[6] = system: HSC2; assay: relative IC50 (inflection point of fitted dose-response curve, CellTox-Green cytotoxicity, 72 h; top asymptote may be below 50%); higher = less potent
In short: (§2)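 MPNST cell lines and primary human Schwann cells were grown for 72 h at 37 °C in 384-well plates containing five 10-fold compound dilutions. CellTox-Green, added before seeding at a final 1:1000 dilution, gave fluorescence from DNA released by disrupted cells, and signals were scaled to vehicle and positive-control wells. Curves were fitted with a four-parameter logistic model. Drug sensitivity score and relative IC50 come from these fits, with IC50 censored at the top concentration.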

[7] = system: S1507-2; assay: as above
In short: as §2

[8] = system: HSC1; assay: as above
In short: as §2

[9] = system: HS-PSS; assay: as above
In short: as §2

[10] = system: ST8814; assay: as above
In short: as §2

[11] = system: HSC1; assay: relative IC50 (inflection point of fitted dose-response curve, CellTiter-Glo viability, 72 h; top asymptote may be below 50% inhibition); higher = less potent
In short: as §1

[12] = system: STS26T; assay: as above
In short: as §1

[13] = system: S462; assay: as above
In short: as §1

[14] = system: ST8814; assay: as above
In short: as §1

[15] = system: STS26T; assay: relative IC50 (inflection point of fitted dose-response curve, CellTox-Green cytotoxicity, 72 h; top asymptote may be below 50%); higher = less potent
In short: as §2

| SMILES | relative IC50 [1] [µM] | relative IC50 [2] [µM] | relative IC50 [3] [µM] | relative IC50 [4] [µM] | relative IC50 [5] [µM] | relative IC50 [6] [µM] | relative IC50 [7] [µM] | relative IC50 [8] [µM] | relative IC50 [9] [µM] | relative IC50 [10] [µM] | relative IC50 [11] [µM] | relative IC50 [12] [µM] | relative IC50 [13] [µM] | relative IC50 [14] [µM] | relative IC50 [15] [µM] |
| --- | --- | --- | --- | --- | --- | --- | --- | --- | --- | --- | --- | --- | --- | --- | --- |
| CC1(C)CCC(c2ccc(Cl)cc2)=C(CN2CCN(c3ccc(C(=O)NS(=O)(=O)c4ccc(N[C@H](CCN5CCOCC5)CSc5ccccc5)c(S(=O)(=O)C(F)(F)F)c4)cc3)CC2)C1 [Navitoclax] | 1.12 | 0.582 | 0.471 | 0.547 | > 10 | 0.983 | 0.608 | 1.54 | > 10 | 1.5 |  |  |  |  |  |
| CC(=O)OC[C@H]1O[C@@H]([S-])[C@H](OC(C)=O)[C@@H](OC(C)=O)[C@@H]1OC(C)=O.CCP(CC)CC.[Au+] [Auranofin] | 0.462 |  | 0.805 | 0.362 | 0.668 | 0.575 | > 2.5 | 0.516 | 0.754 |  | 0.387 | 0.61 | 0.449 | 0.779 | 0.697 |
| CN(Cc1cnc2nc(N)nc(N)c2n1)c1ccc(C(=O)N[C@@H](CCC(=O)O)C(=O)O)cc1 [Methotrexate] |  |  | 0.0609 | 0.0892 | > 5 | > 5 | > 5 | > 5 | > 5 |  | > 5 | 0.0149 | 0.0276 | 0.195 | 0.314 |
| Cn1nnc2c(C(N)=O)ncn2c1=O [Temozolomide] | > 10 |  |  |  |  | > 10 | > 10 | > 10 | > 100 | > 10 | > 10 | > 10 | > 10 |  | > 10 |
| NC(=O)NO [Hydroxyurea] |  |  |  |  | > 100 | > 100 | > 100 | > 100 | > 100 | > 100 |  | > 100 | > 100 | > 100 | > 100 |
| CS(=O)(=O)c1ccc(C2=C(c3ccccc3)C(=O)OC2)cc1 [Rofecoxib] | > 10 |  | > 10 | > 10 | > 10 | > 10 | > 10 | > 10 | > 10 | > 10 | > 10 | > 10 | > 10 | > 10 | > 10 |
| CCn1c(C(=O)N(C2CC2)C2CC2)cc2c3c(ncn3C)c(Nc3cc(C)n(C)n3)nc21 | > 10 |  | 1.59 |  | > 10 | > 10 | > 10 | > 10 | > 10 | > 10 | > 10 | > 10 | > 10 | > 10 | > 10 |

— the supplement of paper PMC5579334
